Measurements taken from patent publication US6869611B1, “Composition and method of effecting superficial chemical skin peels” (priority 1996, dated 2005).

Columns and labels:
[1] = cited from earlier work
[2] = saturation concentration / solubility of salicylic acid in solvent; assay type: physicochemical; conditions: solution temperature of 25° C.

saturation concentration of salicylic acid in ethanol [2]: > 30 wt %
SMILES: O=C(O)c1ccccc1O [salicylic acid, 2-hydroxybenzoic acid]
solubility in water [1]: relatively insoluble in water
